From paper PMC12595434, “Development of retinoid nuclear receptor pathway antagonists through targeting aldehyde dehydrogenase 1A3” (iScience, 2025)
Like-named read-outs stand apart in the source and are kept apart here.

Experiments:
[1] = molecular target: T1, human ALDH1A3 in A375 cells (Homo sapiens, UniProt P47895); experiment: Aldefluor assay in A375 cells; type: cell-based; conditions: for Aldefluor activity at 100 nM (in words): A375 cells; for EC50: Aldefluor in A375 cells, read-out: EC50 cellular, human ALDH1A3
T1 construct: the cell lines with high endogenous ALDH1A3 activity: MDA-MB-468 (triple-negative breast cancer), A375 (melanoma), and LN229 (glioblastoma); endogenous in cells; host or cells: A375
T1 sequence (P47895 1-512): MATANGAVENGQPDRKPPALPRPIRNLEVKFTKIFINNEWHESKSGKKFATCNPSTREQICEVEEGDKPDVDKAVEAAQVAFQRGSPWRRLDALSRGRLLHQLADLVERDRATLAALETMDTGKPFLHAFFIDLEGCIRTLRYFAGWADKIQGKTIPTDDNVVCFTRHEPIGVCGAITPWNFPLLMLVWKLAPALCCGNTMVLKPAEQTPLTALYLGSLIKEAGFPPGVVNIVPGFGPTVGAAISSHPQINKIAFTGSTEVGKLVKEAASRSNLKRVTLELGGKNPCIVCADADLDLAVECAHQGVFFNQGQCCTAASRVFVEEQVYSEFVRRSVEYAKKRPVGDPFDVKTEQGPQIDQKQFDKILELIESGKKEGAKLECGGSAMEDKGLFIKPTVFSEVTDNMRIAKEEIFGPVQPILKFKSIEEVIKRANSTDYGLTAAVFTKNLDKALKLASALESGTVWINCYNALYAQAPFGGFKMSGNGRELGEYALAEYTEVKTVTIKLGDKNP
Method: In addition, cells were suspended at a concentration of 100,000 cells per mL. Finally, DMSO was added to at 1% final in all cells to improve kinetics of the assay. For compound titrations, concentrated compound stock was added first to tubes and a uniform Aldefluor buffer containing the cell suspension was added to dilute to final volumes. Cells were analyzed by a BD LSRII for flow cytometry and were sorted using a FACSAria Fusion cell sorter (BD Biosciences) equipped with a 70 micron nozzle. Sample and sort collection tubes were kept at 4°C. […] DAPI was used as a live-dead indicator.

ADORA2A = ADORA2A (Homo sapiens, UniProt P29274); experiment: Off-target profiling panel; type: binding; conditions: read-out: Inhibition by MBE1 at 10 μM (%)
Sequence of ADORA2A (P29274 whole entry): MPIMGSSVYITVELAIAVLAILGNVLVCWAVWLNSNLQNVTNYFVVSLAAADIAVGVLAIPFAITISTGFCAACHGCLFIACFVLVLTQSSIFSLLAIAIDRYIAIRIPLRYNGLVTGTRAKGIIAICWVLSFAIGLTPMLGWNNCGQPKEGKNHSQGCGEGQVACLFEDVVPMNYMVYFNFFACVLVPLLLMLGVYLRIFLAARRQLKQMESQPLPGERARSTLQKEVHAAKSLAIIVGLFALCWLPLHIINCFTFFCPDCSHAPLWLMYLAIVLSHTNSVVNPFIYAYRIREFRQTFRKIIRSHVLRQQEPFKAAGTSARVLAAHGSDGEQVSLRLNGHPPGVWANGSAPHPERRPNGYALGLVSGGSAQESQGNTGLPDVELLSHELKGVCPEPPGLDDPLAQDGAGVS

hKCNQ1 = hKCNQ1 (Homo sapiens, UniProt P51787); experiment: Off-target profiling panel; type: cell-based; conditions: read-out: Inhibition by MBE1 at 10 μM (%)
GABAA = experiment: Off-target profiling panel
ALDH1A3 [2] = molecular target: T2, ALDH1A3 (Homo sapiens, UniProt P47895); experiment: Recombinant enzyme activity assay; type: biochemical; design: made in house; host or cells: BL21-DE3 E. coli
T2 sequence (P47895 1-512): T1 sequence (P47895 1-512)
Method: We then tested each published ALDH inhibitor against the three human ALDH1A enzymes to assess inhibitory activity and isozyme selectivity.
Recombinant protein was isolated by inducing BL21-DE3 E. coli (Thermo Fisher) containing the respective plasmid for 20 h at room temperature, shaking, with 300 μM IPTG (Selleck Chem). […] The target protein was then purified using Ni NTA beads 6FF affinity chromatography. Lysis buffer consisted of 50 mM Na2HPO4, 300 mM NaCl, 1 mM β-ME, pH7.5. The column (2 mL) was washed with 50 mM Na2HPO4, 300 mM NaCl, 1 mM β-ME, 20 mM Imidazole, pH7.5. Elution was performed using 3 mL of 50 mM Na2HPO4, 300 mM NaCl, 1 mM β-ME, 250 mM Imidazole, pH7.5. Following affinity chromatography, the protein underwent further purification via Gel filtration chromatography using a Superdex200 column. […] Purified enzyme was used for biochemical and biophysical assays.
For the recombinant enzyme activity assay, enzyme aliquots were thawed on ice for 4 h prior to analysis and the protocol was performed as described[8] with the following key changes: 1) Final concentrations of NAD+ (Gold Bio) were 200 μM and BSA were 1 mg/mL 2) Propanaldehyde was used as the substrate for ALDH1A1 and ALDH2. 3) Reaction velocity was monitored through diaphorase (clostridium) coupled reduction of resazurin (100 μM) monitored with ex/em of 560nm/590 nm in order to regenerate NAD+ and thus maintain constant cofactor concentration as well as to avoid high absorbance values of many screening compounds at the NADH absorbance. Assays were conducted at room temperature (controlled to 21-23C) and all buffers were maintained at pH 7.5. For all reactions, pre-incubation time was approximately 2 min while the reaction monitoring was performed over 10 min.

ALDH1A3 [3] = molecular target: T2, ALDH1A3; experiment: Cellular thermal shift assay (CETSA) in A375 cells; type: cell-based; design: endogenous in cells; host or cells: A375 cells; conditions: 100 nM, 1h at 37°C
Method: CETSA was performed according to protocols described before.[85] Briefly, 6 × 10cm dishes of A375 cells were collected and treated with 100 nM MBE1 or 0.1% DMSO for 1h at 37°C. Afterward, cells were pelleted through centrifugation at 300g for 5 min. Cells were then washed with ice-cold PBS and resuspended in 800 μL of PBS. Cell suspension was aliquoted to 7xPCR tubes with 100 μL each and subjected to thermal denaturation at 46.3, 48.6, 52.2, 56.5, 60.1, 62.5, 64.0°C for 3 min. The resulting sample was snap frozen in liquid nitrogen followed by incubation at room temperature until fully thawed. This procedure was performed twice followed by brief vortexing and mixing to release soluble proteins from the cells. Samples were then transferred to 1.5 mL Eppendorf tubes and centrifuged at 20,000g for 20 min at 4°C, 90 μL of the resulting supernatant was collected into another new 1.5 mL Eppendorf tube and subjected to protein analysis by western blot (WB). NPTN (proteintech #28022-1-AP) and ALDH1A3 (abcam #ab129815) were used to detect target proteins while GelCode Blue Stain Reagent (Thermofisher scientific #24590) was used to stain for total proteins loaded in the WB analysis.

| SMILES | Aldefluor activity at 100 nM (in words) [1] | EC50 [1] [nM] | inhibition at 10 µM (ADORA2A) [%] | inhibition at 10 µM (hKCNQ1) [%] | Inhibition by MBE1 at 10 μM (%) (GABAA) | IC50 (ALDH1A3 [2]; dose titration, substrate competition assay, recombinant human ALDH1A3, 4-parameter equation, read-out: huALDH1A3 IC50) [nM] | confirmatory screening result (ALDH1A3 [2]; hits of the 494-compound screen) | stabilization of ALDH1A3 in CETSA (in words) (ALDH1A3 [3]) | IC50 (ALDH1A3 [2]; recombinant activity assay (Table 1), read-out: IC50 molecular, human ALDH1A3) [nM] | competition mode (ALDH1A3 [2]; varying substrate and cofactor concentrations) |
| --- | --- | --- | --- | --- | --- | --- | --- | --- | --- | --- |
| CCc1cnccc1C(=O)Nc1cc2c(cc1F)NC(=O)CC2 [MBE1, 3-ethyl-N-(7-fluoro-2-oxo-3,4-dihydro-1H-quinolin-6-yl)pyridine-4-carboxamide] | highest activity | 5.1 | -15.7 | 11.9 | −5.08 | 148 | true positives | increased stability and solubility at high temperatures |  |  |
| CCc1ccccc1C(=O)Nc1cc2c(cc1F)NC(=O)CC2 [MBE1.5, 2-ethyl-N-(7-fluoro-2-oxo-3,4-dihydro-1H-quinolin-6-yl)benzamide] | highest activity | 1.9 |  |  |  |  |  |  | 83 | noncompetitive inhibitor |
